Tests used:
Type in all cases: in vivo
[1] = tested on: Euphorbia heterophylla; assay: Greenhouse pre-emergence (PRE) herbicidal test on EPHHL; settings: Euphorbia heterophylla, pre-emergence, 480 h, 20 DAT; for inhibition at 25 g/ha: use rate 25 gai/ha
Procedure, shortened: (§1)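 Seeds were sown per species in pots of loamy sand with about 3.0% humus, treated pre-emergence, watered and hooded until rooted. Plants grew at 10-25° C or 20-35° C depending on species. Damage was scored 0-100 (100 = no emergence or above-ground parts destroyed) at 20 DAT.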

[2] = tested on: Ipomoea hederacea; assay: Greenhouse pre-emergence (PRE) herbicidal test on IPOHE; settings: Ipomoea hederacea, pre-emergence, 480 h, PRE, IPOHE, 20 DAT
Excerpt: (§2) The culture containers used were plastic pots containing loamy sand with approximately 3.0% of humus as substrate. The seeds of the test plants were sown separately for each species.
(§3) For the pre-emergence treatment, the active compounds, suspended or emulsified in water, were applied directly after sowing by means of finely distributing nozzles. The containers were irrigated gently to promote germination and growth and subsequently covered with transparent plastic hoods until the plants had rooted. This cover caused uniform germination of the test plants unless this was adversely affected by the active compounds.
(§4) Depending on the species, the plants were kept at 10-25° C. and 20-35° C., respectively.
(§5) The test period extended over 2 to 4 weeks. During this time, the plants were tended and their response to the individual treatments was evaluated.
(§6) Evaluation was carried out using a scale from 0 to 100. 100 means no emergence of the plants, or complete destruction of at least the above-ground parts, and 0 means no damage or normal course of growth. A good herbicidal activity is given at values of at least 70, and very good herbicidal activity is given at values of at least 85.
(§7) If not stated differently, the respective components A and B, and if appropriate, C were formulated as a 5% by weight strength emulsion concentrate and, with addition of the amount of solvent system, introduced into the spray liquor used for applying the active compound.
(§8) As indicated application was either post emergent (POST) at the respective growth stage (GS) of the weed (BBCH code), or pre-emergent (PRE).
(§9) Assessment was 20 days after treatment (DAT).

[3] = tested on: Abutilon theophrasti; assay: Greenhouse post-emergence (POST) herbicidal test on ABUTH; settings: Abutilon theophrasti, post-emergence, 480 h, 20 DAT
Procedure, shortened: (§10)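 Weeds grown in loamy sand (~3.0% humus) to 3–15 cm were sprayed post-emergence with compounds suspended or emulsified in water, formulated as 5% emulsion concentrates. Plants were kept at 10-25 °C or 20-35 °C by species. Damage was scored 0–100 (100 = complete destruction) at 20 DAT.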

[4] = tested on: Amaranthus retroflexus; assay: Greenhouse post-emergence (POST) herbicidal test on AMARE; settings: Amaranthus retroflexus, post-emergence, 480 h, 20 DAT; for inhibition at 25 g/ha: use rate 25 gai/ha
Procedure, shortened: as §10

[5] = tested on: Geranium pusillum; assay: Greenhouse post-emergence (POST) herbicidal test on GERPU; settings: Geranium pusillum, post-emergence, 480 h, 20 DAT
Procedure, shortened: as §10

[6] = tested on: Abutilon theophrasti; assay: Greenhouse pre-emergence (PRE) herbicidal test on ABUTH; settings: Abutilon theophrasti, pre-emergence, 480 h, 20 DAT
Procedure, shortened: as §1

[7] = tested on: Commelina benghalensis; assay: Greenhouse pre-emergence (PRE) herbicidal test on COMBE; settings: Commelina benghalensis, pre-emergence, 480 h, 20 DAT
Procedure, shortened: as §1

[8] = tested on: Geranium pusillum; assay: Greenhouse pre-emergence (PRE) herbicidal test on GERPU; settings: Geranium pusillum, pre-emergence, 480 h, PRE, use rate 7.5 gai/ha, 20 DAT
Excerpt: as §2, §3, §4, §5, §6, §7, §8, §9

[9] = tested on: Amaranthus retroflexus; assay: Greenhouse pre-emergence (PRE) herbicidal test on AMARE; settings: Amaranthus retroflexus, pre-emergence, 480 h; AMARE PRE, 20 DAT, use rate 12.5 gai/ha
Procedure, shortened: as §1

[10] = tested on: Ambrosia artemisiifolia; assay: Greenhouse pre-emergence (PRE) herbicidal test on AMBEL; settings: Ambrosia artemisiifolia, pre-emergence, 480 h, AMBEL PRE, 20 DAT, use rate 12.5 gai/ha
[11] = tested on: Lolium multiflorum; assay: Greenhouse pre-emergence (PRE) herbicidal test on LOLMU; settings: Lolium multiflorum, pre-emergence, 480 h, LOLMU PRE, 20 DAT
Procedure, shortened: as §1

[12] = tested on: Setaria viridis; assay: Greenhouse pre-emergence (PRE) herbicidal test on SETVI; settings: Setaria viridis, pre-emergence, 480 h; SETVI PRE, 20 DAT, use rate 25 gai/ha
Procedure, shortened: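 Seeds sown per species in pots of loamy sand with approx. 3.0% humus; compounds suspended or emulsified in water were sprayed via fine nozzles directly after sowing. Pots were watered and hooded until rooted, held at 10-25° C. or 20-35° C. by species, and scored 0–100 (100 = no emergence/complete destruction) 20 DAT.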

[13] = tested on: Echinochloa crus-galli; assay: Greenhouse post-emergence (POST) herbicidal test on ECHCG; settings: Echinochloa crus-galli, post-emergence, 480 h, ECHCG POST, 20 DAT, use rate 25 gai/ha
Procedure, shortened: as §10

[14] = tested on: Euphorbia heterophylla; assay: Greenhouse post-emergence (POST) herbicidal test on EPHHL; settings: Euphorbia heterophylla, post-emergence, 480 h, EPHHL POST, 20 DAT, use rate 12.5 gai/ha
Procedure, shortened: as §10

[15] = tested on: Ipomoea hederacea; assay: Greenhouse post-emergence (POST) herbicidal test on IPOHE; settings: Ipomoea hederacea, post-emergence, 480 h, IPOHE POST, 20 DAT
Procedure, shortened: as §10

SMILES: Cc1ccccc1CO[C@@H]1C[C@@]2(C(C)C)CC[C@]1(C)O2 (racemic) [Cinmethylin, cinmethylin]
- inhibition at 25 g/ha ([1]; PRE, EPHHL): 0%
- inhibition at 50 g/ha ([1]; PRE, EPHHL, use rate 50 gai/ha): 0%
- inhibition at 25 g/ha ([2]; use rate 25 gai/ha): 0%
- inhibition at 50 g/ha ([2]; use rate 50 gai/ha): 0%
- inhibition at 50 g/ha ([3]; POST, ABUTH, use rate 50 gai/ha): 0%
- inhibition at 100 g/ha ([3]; POST, ABUTH, use rate 100 gai/ha): 0%
- inhibition at 25 g/ha ([4]; POST, AMARE): 0%
- inhibition at 100 g/ha ([4]; POST, AMARE, use rate 100 gai/ha, read-out: % activity): 30%
- inhibition at 25 g/ha ([5]; POST, GERPU, use rate 25 gai/ha): 10%

SMILES: COc1cc(OC)nc(Oc2cccc(Oc3nc(OC)cc(OC)n3)c2C(=O)O)n1 [Bispyribac-Sodium, bispyribac-sodium]
- inhibition at […] ([6]; PRE, use rate 7.5 gai/ha, read-out: % activity): 5%
- inhibition at 15 g/ha ([6]; PRE, use rate 15 gai/ha, read-out: % activity): 45%
- inhibition at 15 g/ha ([7]; PRE, use rate 15 gai/ha): 80%
- inhibition at […] [8]: 75%

SMILES: CC(C)N(C(=O)COc1nnc(C(F)(F)F)s1)c1ccc(F)cc1 [Flufenacet, flufenacet]
- inhibition at 12.5 g/ha ([6]; ABUTH PRE, use rate 12.5 gai/ha): 0%
- inhibition at 12.5 g/ha [9]: 0%
- inhibition at 12.5 g/ha [10]: 0%
- inhibition at 12.5 g/ha ([7]; COMBE PRE, use rate 12.5 gai/ha): 10%
- inhibition at 25 g/ha ([7]; COMBE PRE, use rate 25 gai/ha): 35%
- inhibition at 12.5 g/ha ([1]; EPHHL PRE, use rate 12.5 gai/ha): 10%
- inhibition at 25 g/ha ([1]; EPHHL PRE): 10%
- inhibition at 12.5 g/ha ([11]; use rate 12.5 gai/ha): 0%
- inhibition at 25 g/ha ([11]; use rate 25 gai/ha): 35%
- inhibition at 25 g/ha [12]: 65%
- inhibition at 25 g/ha ([3]; ABUTH POST, use rate 25 gai/ha): 0%
- inhibition at 12.5 g/ha ([4]; AMARE POST, use rate 12.5 gai/ha): 15%
- inhibition at 25 g/ha ([4]; AMARE POST): 25%
- inhibition at 25 g/ha [13]: 85%
- inhibition at 12.5 g/ha [14]: 0%
- inhibition at 12.5 g/ha ([5]; GERPU POST, use rate 12.5 gai/ha): 5%
- inhibition at 12.5 g/ha ([15]; use rate 12.5 gai/ha): 0%
- inhibition at 25 g/ha ([15]; use rate 25 gai/ha): 0%

From patent publication US20260007133A1, “HERBICIDAL COMPOSITION COMPRISING AZINE COMPOUNDS” (BASF SE, priority 2022, published 2026)
